Activity calls are given as the source filed them. How the calls were made is not given here.
Test system: CCRIS mutagenicity, Ames/micronucleus/aberration tests
Assay: CCRIS mutagenicity studies
[1] = Test System: AMES SALMONELLA TYPHIMURIUM, Strain/Indicator: TA100, Metabolic Activation: NONE, Method: STANDARD PLATE

Row | SMILES | mutagenic call [1] | mutagenic call (Test System: AMES SALMONELLA TYPHIMURIUM, Strain/Indicator: TA100, Metabolic Activation: RAT, LIVER, S-9, AROCLOR 1254, Method: STANDARD PLATE) | mutagenic call (Test System: AMES SALMONELLA TYPHIMURIUM, Strain/Indicator: TA98, Metabolic Activation: NONE, Method: PREINCUBATION) | mutagenic call (Test System: AMES SALMONELLA TYPHIMURIUM, Strain/Indicator: TA98, Metabolic Activation: RAT, LIVER, S-9, PHENOBARBITAL AND 5,6-BENZOFLAVONE, Method: PREINCUBATION) | mutagenic call (Test System: AMES SALMONELLA TYPHIMURIUM, Strain/Indicator: TA100, Metabolic Activation: NONE, Method: PREINCUBATION) | mutagenic call (Test System: AMES SALMONELLA TYPHIMURIUM, Strain/Indicator: TA100, Metabolic Activation: RAT, LIVER, S-9, PHENOBARBITAL AND 5,6-BENZOFLAVONE, Method: PREINCUBATION) | mutagenic call (Test System: AMES SALMONELLA TYPHIMURIUM, Strain/Indicator: TA1535, Metabolic Activation: NONE, Method: PREINCUBATION) | mutagenic call (Test System: AMES SALMONELLA TYPHIMURIUM, Strain/Indicator: TA1535, Metabolic Activation: RAT, LIVER, S-9, PHENOBARBITAL AND 5,6-BENZOFLAVONE, Method: PREINCUBATION) | mutagenic call (Test System: AMES SALMONELLA TYPHIMURIUM, Strain/Indicator: TA1537, Metabolic Activation: NONE, Method: PREINCUBATION) | mutagenic call (Test System: AMES SALMONELLA TYPHIMURIUM, Strain/Indicator: TA1537, Metabolic Activation: RAT, LIVER, S-9, PHENOBARBITAL AND 5,6-BENZOFLAVONE, Method: PREINCUBATION) | mutagenic call (Test System: E. COLI, Strain/Indicator: WP2 UVRA, Metabolic Activation: NONE, Method: PREINCUBATION) | mutagenic call (Test System: E. COLI, Strain/Indicator: WP2 UVRA, Metabolic Activation: RAT, LIVER, S-9, PHENOBARBITAL AND 5,6-BENZOFLAVONE, Method: PREINCUBATION) | mutagenic call (Test System: AMES SALMONELLA TYPHIMURIUM, Strain/Indicator: TA100, Metabolic Activation: RAT, LIVER, S-9, AROCLOR 1254 (10 OR 20%), Method: STANDARD PLATE)
1 | O=C(Cn1ccnc1[N+](=O)[O-])NCc1ccccc1 | active; positive | active; positive |  |  |  |  |  |  |  |  |  |  | 
2 | Cc1oc(=O)oc1CN1CCN(c2cc3c(cc2F)c(=O)c(C(=O)O)c2n3C(C)S2)CC1 (centres undefined) |  |  | inactive; negative | inactive; negative | inactive; negative | inactive; negative | inactive; negative | inactive; negative | inactive; negative | inactive; negative | inactive; negative | inactive; negative | 
3 | OC1CC=Cc2cccnc21 (centres undefined) | inactive; negative |  |  |  |  |  |  |  |  |  |  |  | inactive; negative

Source: PubChem BioAssay AID1259407 (Chemical Carcinogenesis Research Information System (CCRIS), 2018)
